The values below are quoted from earlier work in patent publication US4806659A, “Tannin compounds” (Kabushiki Kaisha Tsumura Juntendo, priority 1985, dated 1989).

For the data set the following is noted: known drugs, schizophrenia.

In the case of `COc1ccc2c(c1)N(C[C@H](C)CN(C)C)c1ccccc1S2` [Levomepromazine], the sedative effect result is reported as “strong sedative effect”.
Consider `CN(C)CCCN1c2ccccc2Sc2ccc(Cl)cc21` [chlorpromazine], for which the sedative effect result is listed as “strong sedative effect”.
Consider `OCCN1CCN(CCCN2c3ccccc3Sc3ccc(C(F)(F)F)cc32)CC1` [fluphenazine], for which the “anti-hallucination and -delution effects” value is “strong anti-hallucination and -delution effects”.
For `O=C(CCCN1CCC(O)(c2ccc(Cl)cc2)CC1)c1ccc(F)cc1` [haloperidol], the “anti-hallucination and -delution effects” value is “strong anti-hallucination and -delution effects”.
As for `OCCN1CCN(CCCN2c3ccccc3Sc3ccc(Cl)cc32)CC1` [perphenazine], the “anti-hallucination and -delution effects” value was “strong anti-hallucination and -delution effects”.
With `CCN1CCCC1CNC(=O)c1cc(S(N)(=O)=O)ccc1OC` (stereo not drawn) [sulpiride], the sedative effect entry is recorded as “mild sedative effect”.
